The source of these data is US12516080B2, “Remdesivir and remdesivir analogs, solutions, and nanoparticle, liposomal, and microparticle compositions for treating viral infections” (priority 2020, dated 2026).

In one data set the test system is COVID-19 virus. Nature of the data set: In vitro anti-COVID-19 virus activity of remdesivir (literature). As to conditions: assuming intracellular Nuc-TP accumulates more than 10-fold to extracellular remdesivir. In kind it is cell-based, SARS-CoV-2.
The conditions of data set [1]: mice, cited from earlier work.
For data set [2] the following is noted: cited from earlier work.
The subject of a further data set is AMJ2-C11 cells. Kind of data set: Cellular uptake of formulations, AMJ2-C11 cells. As to conditions: 10 μM. Type of data set: cell-based.
The subject of a further data set is Calu-3 cells. Kind of data set: Cellular uptake of formulations, Calu-3 cells. The conditions noted are these: 10 μM. Type of data set: cell-based.
The next data set relates to human cells. As to conditions: in vitro metabolism; cited from earlier work.
The conditions of data set [3]: marmosets, cited from earlier work.
The test system of another data set is THP-1 cells. Nature of the data set: Cellular uptake of formulations, THP-1 cells. In kind it is cell-based. As to conditions: 10 μM.
Data set [4] has as its system PBMC, monocytes, Hela, microphage, and HUVEC. The conditions noted are these: multiple human and rhesus monkey cells; cited from earlier work.
Data set [5] can be described thus: Tissue targeting of formulations (concentration-time profiles and AUC in tissues). In kind it is in vivo. The conditions noted are these: hamsters, i.v. 10 mg/Kg; for parent compound concentration through all tissues: 0.5-24 hr, short time points. The procedure: (§1) For nucleoside triphosphate analysis, LC-MS/MS was performed by ion-pairing chromatography using LC 20AD UFLC (Shimadzu, Japan) couple with an API 5500 (AB Sciex, USA). The separation was achieved on a 50×2.1 mm Agilent 3.5 μm C18 column. The mobile phase consisted of 3 mM ammonium formate with 10 mM dimethylhexylamine in water (mobile phase A), and 0.1% formic Acid in ACN (mobile phase B). A multi-stage linear gradient initiated with 2% B for 1 min, increased to 95% B in 2 min and maintained with 95% B for 1 min at a flow rate of 0.4 mL/min. Detection was performed on negative ion mode and multiple reaction monitoring modes.
(§2) Remdesivir, analogs and their metabolites alanine metabolite and Nuc were analyzed on an X500R QTOF System (AB Sciex, USA). Chromatographic separation was obtained on a 50×2.1 mm Agilent 3.5 μm C18 column using constant flow rate of 0.6 mL/min. The gradient mobile phase consisted of 0.1% formic acid in water (mobile phase A) and 0.1% formic acid acetonitrile (mobile phase B), running from 5% B to 95% B within 3 min and then maintaining 95% B for 1 min. The eluent was introduced into quadrupole time-of-flight mass spectrometry by electrospray ionization (ESI) operated in positive modes.
(§3) All the analytes were quantified using 10-point standard curves ranging from 5 to 5000 ng/mL.
Besides nano formulation, a cyclodextrin-based formulation was also prepared for MMT5-14. Briefly, 2% cremophor and 2% ethanol was added to dissolve the MMT5-14, followed by mixing with 20% SBE-CD. Two formulated MMT5-14 compounds together with remdesivir (marketed formulation) were i.v. administered to catheterized hamsters with dose as 10 mg/Kg. Each group has two hamsters. At different time points (0.5 hr, 1 hr, 4 hr, 7 hr and 24 hr), the hamsters were euthanized and samples including plasma, blood, blood vessel, heart, intestine, kidney, lung, lymph node, spleen, trachea, and others were collected for future LC-MS analysis.

For a further data set, the system named is B24 cells. As to conditions: cited from earlier work.
A short description of data set [6]: Short-time PK test and initial tissue targeting (plasma, blood, lung). As to conditions: hamsters, i.v. 10 mg/Kg. In kind it is in vivo. The procedure: as §1, §2, §3
Short-time PK test was used to compare different compounds. Five remdesivir analogs (MMT4-70, MMT4-98, MMT5-1, MMT5-14, and MMT5-15) were compared to remdesivir. The structures of MMT5-14 and MMT5-15 are shown below. Albumin nanocomplexes of the remdesivir analogs were made according to the following procedure: organic phase was prepared by dissolving the synthesized compounds (20 mg) into chloroform (1 ml). 20 ml of marketed HSA solution (5%) was then mixed with organic phase and dispersed vigorously by a rotor-stator homogenizer (Ultra-Turrax T25, 8K rpm-12K rpm, 5 min) to generate a milk-like emulsion. The emulsion was then processed by a high-pressure homogenizer (Nano DeBEE) with the parameters set as pressure=15,000 psi-20,000 psi, condensation temp=5° C., cycles=6. Remaining organic solvent in the product was removed by a rotatory evaporator. The final nano-suspension was filtered with 0.22 μm membrane and freeze dried (primary drying temp=−5° C. for 30 h and secondary drying temp=30° C. for 6 h). The vials were filled with nitrogen before sealing and stored at −20° C.
The formulations and remdesivir (marketed formulation) were i.v. administered to catheterized hamsters with dose of 10 mg/Kg. Each group had two hamsters. At different time points (0.25 hr, 1 hr, 2 hr and 4 hr), plasma was collected for future LC-MS analysis. At 4 hr time point, the hamsters were euthanized and blood and lung were collected for future LC-MS analysis.

The nature of data set [7]: In-vitro plasma stability, mouse plasma. Type of data set: in vitro ADME. As to conditions: compared with remdesivir. The procedure:
as §1, §2, §3
(§4) To test the in-vitro plasma stability, 5 ul of […] test compound (remdesivir, MMT4-70, MMT4-98, MMT5-1) was added to 495 ul human, hamster, and mouse plasma, respectively. The structures of MMT4-70, MMT4-98, MMT5-1 are shown below. Aliquot of 40 μL was pipetted from the reaction solution and stopped by the addition of 160 μL cold acetonitrile at different sampling time (0, 10 min, 30 min, 60 min and 120 min). The incubation solution was centrifuged at 3500 rpm for 10 minutes to precipitate protein. The supernatant was used for LC/MS/MS analysis.

Data set [8] in a line: In-vitro plasma stability, statements over human, hamster, and mouse plasma. In kind it is in vitro ADME. As to conditions: different plasmas. The procedure:
as §1, §2, §3, §4

Data set [9] can be described thus: In-vitro plasma stability, human plasma. Type of data set: in vitro ADME. The procedure:
as §1, §2
All the analytes were quantified using 10-point standard curves ranging from 5 to 5000 ng/mL. […]

Read-outs that look alike come from different tables or passages of the source.

Broadly, the EC50 is the midpoint of the concentration-response curve. By EC90 is commonly meant the point of the concentration-response curve where the effect stands at 90%. `N#C[C@@]1(c2ccc3c(N)ncnn23)O[C@H](COP(=O)(O)OP(=O)(O)OP(=O)(O)O)[C@@H](O)[C@H]1O` [Nuc-TP]: the EC50 in the data set with COVID-19 virus (read-out: EC50 of intracellular Nuc-TP against COVID-19 virus) is more than 7.7 µM. Also, the EC90 in the data set with COVID-19 virus (read-out: EC90 of intracellular Nuc-TP against COVID-19 virus) was more than 17.6 µM.

Regarding `CCC(CC)COC(=O)[C@H](C)N[P@](=O)(OC[C@H]1O[C@@](C#N)(c2ccc3c(N)ncnn23)[C@H](O)[C@@H]1O)Oc1ccccc1` [remdesivir, Remdesivir], the “concentration of Nuc-TP in the lung” value was approximately 3000 nM in data set [1] (25-50 mg/kg remdesivir); 800 to 1500 nM in [2] (monkey, 10 mg/kg remdesivir); 800 to 1500 nM in data set [3] (i.v. bolus 10 mg/kg remdesivir). Further, the “concentration of remdesivir in the lung” value was “did not achieve measurable concentration” in data set [1] (25-50 mg/kg) and “did not achieve measurable concentration” in [2] (monkey, 10 mg/kg). For the same compound, the “Nuc-TP concentration in PBMC” value in data set [2] (blood cells such as PBMC) is on record as 30-40 PM. Besides, the “plasma nucleoside monophosphate (Nuc-MP) concentration” value in [2] (monkey, i.v. 10 mg/kg remdesivir, for 12-24 hrs) was 0.5 to 1 µM. The “remdesivir plasma concentration in 30 min” value in data set [2] (monkey, i.v. 10 mg/kg, 30 min) is recorded as “below 0.5 μM”. For the same compound, the remdesivir plasma concentration result in data set [2] (monkey, i.v. 10 mg/kg, initial) is reported as “several micromolar”. For the same compound, the “alanine metabolite concentration in cells” value with AMJ2-C11 cells, in the data set with Calu-3 cells and with THP-1 cells was “higher concentrations” in each case. In addition, the “generation of NTP in cells” value in the data set on AMJ2-C11 cells and in the data set with Calu-3 cells was “higher generation” throughout. For the same compound, the other metabolites share with human cells is listed as 45%. Moreover, in the data set with human cells, the “remdesivir converted into Nuc-TP” value is on record as “approximately 55%”. The “remdesivir in the lungs” value in data set [3] (i.v. bolus 10 mg/kg) was “not detectable”. Moreover, in data set [4], the “intracellular Nuc-TP versus extracellular concentration of remdesivir” value was 25-100 folds. Further, in [5], the “parent compound concentration through all tissues” value is on record as “quickly metabolized”. Further, the “active metabolite NTP accumulation” value in [5] (blood vessel, heart, and lymph node) is on record as “better accumulation”. The “NUC concentration in tissues” value in data set [5] (several tissues like heart and trachea) is given as “high concentration”. Further, the “intracellular Nuc-TP accumulation relative to extracellular remdesivir” value in the data set with B24 cells is reported as “more than 3 fold”. Besides, the “stability in plasma (plasma concentration change)” value in data set [6] (0.25-4 hr) is “quickly metabolized”. Further, in data set [6] (short time points), the “ALA concentration in plasma” value is “High concentration”. For the same compound, the “NUC concentration in plasma” value in data set [6] (short time points) was “High concentration”.

For the compound `C[C@H](NP(=O)(OC[C@H]1O[C@@H](c2ccc3c(N)ncnn23)[C@H](O)[C@@H]1O)Oc1cccc2ccccc12)C(=O)OCc1ccccc1` (stereo partly drawn) [MMT5-1], the “stability taking account of ALA generation” value (“stability taking account” below) in [7] is on record as “similar/better stability”. Moreover, the “overall stability compared with remdesivir” value in [8] is given as “more stable than remdesivir”. The “stability ranking in human plasma” value in data set [9] is “behaved best”.

Regarding `CCCCCCCCCCCCOC(=O)[C@H](C)NP(=O)(OC[C@H]1O[C@@H](c2ccc3c(N)ncnn23)[C@H](O)[C@@H]1O)Oc1ccccc1` (stereo partly drawn) [MMT4-70], in [7], the “stability taking account” value is given as “similar/better stability”. Moreover, in [8], the “overall stability compared with remdesivir” value was “more stable than remdesivir”.

As for `CCCCCCCCCCCCOC(=O)[C@H](C)NP(=O)(OC[C@H]1O[C@@H](c2ccc3c(N)ncnn23)[C@H](O)[C@@H]1O)Oc1cccc2ccccc12` (stereo partly drawn) [MMT4-98], the “stability taking account” value in data set [7] is listed as “similar/better stability”. Further, the “overall stability compared with remdesivir” value in data set [8] was “more stable than remdesivir”.

On to `CCCCCC/C=C\C/C=C\CCCCCCCCOC(=O)[C@H](C)NP(=O)(OC[C@H]1O[C@@H](c2ccc3c(N)ncnn23)[C@H](O)[C@@H]1O)Oc1ccccc1` (stereo partly drawn) [MMT5-14], for which, in [5], the “ALA metabolite concentration in tissues compared with remdesivir” value is reported as “higher” and the “parent compound concentration through all tissues” value is recorded as “much higher”. Further, in [5] (all analyzed tissues), the “AUC of ALA compared with remdesivir” value is “higher AUCs” and the “AUC of the parent compound compared with remdesivir” value was “higher AUCs”. Besides, the “parent compound, MMT5-14 versus Nano-MMT5-14 groups” value in [5] (blood vessel, kidney, and trachea) is “higher”. For the same compound, in data set [5] (blood, lung, and spleen), the “active metabolite NTP accumulation” value is given as “behaved better”. Further, in data set [5] (most tissues), the “parent compound, MMT5-14 versus Nano-MMT5-14 groups, most tissues” value was “No significance”. The “stability and concentration in blood and lung tissue (reason for selection)” value in [6] was “balanced stability and high concentration in blood and lung tissue”.
